From ChEMBL document CHEMBL1201862, “PubChem BioAssay data set” (2004) come the findings set out here.

Some test systems named below: ACHN; CAKI-1; DMS-114; DU-145; HCT-15; HT-29; Hs-578T; KM12; M14; MCF7; MDA-MB-435; Malme-3M; NCI-H460; OVCAR-3; OVCAR-8; SNB-19; SR; T47D; TK-10; UACC-62.
Holding throughout (test): NCI-60 cell line screen, 48 h

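Interpolation was linear, between the two tested concentrations surrounding the appropriate level; five concentrations were tested over 48 hours in 96-well plates. GI50 is the concentration that inhibits growth by half.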 Active and inactive are the calls of the source. Rule as the data show it: active = GI50 up to about 1.1 µM and inactive = higher.

Turning to `O=S(=O)(c1ccccc1)C1CN(Cc2ccccc2)CCN(Cc2ccccc2)C1`, the GI50 was 39.4 µM (inactive) with ACHN; 24.4 µM (inactive) in the test with CAKI-1; 10 µM (inactive) with DMS-114; 80.5 µM (inactive) with DU-145; 25 µM with HCT-15; 24.5 µM (inactive) in the test on HT-29. Besides, the GI50 with Hs-578T is 37.2 µM (inactive); with KM12, 58.3 µM (inactive); with M14 it was 24.2 µM (inactive); with MCF7, 36.8 µM (inactive); with MDA-MB-435, 20.9 µM (inactive); in the test on Malme-3M it was 25.5 µM (inactive). The GI50 with NCI-H460 was 26.7 µM (inactive); in the test with OVCAR-3, 26.6 µM (inactive); in the test on OVCAR-8 it was 14.4 µM (inactive); with SNB-19, > 60.4 µM (inactive); in the test with SR, 7.76 µM (inactive); in the test with T47D, 30 µM (inactive). The GI50 was 63.4 µM (inactive) in the test with TK-10 and 11.4 µM (inactive) in the test on UACC-62.
Regarding `COc1ccc(NC(=O)CC(=O)n2nc(-c3ccccc3)c(/N=N/c3ccc(C)cc3)c2-c2ccccc2)cc1`, the GI50 in the test on ACHN is 32.5 µM (inactive); in the test with CAKI-1 it was 55.3 µM (inactive); with DMS-114, > 49.5 µM (inactive); with DU-145 it was > 59.7 µM (inactive); in the test on HCT-15 it was greater than 100 µM; in the test on HT-29 it was > 88.3 µM (inactive). In addition, the GI50 in the test on Hs-578T is 16.6 µM (inactive); in the test on KM12, 65.6 µM (inactive); with M14, 52.6 µM (inactive); in the test on MCF7, > 52.1 µM (inactive); in the test on MDA-MB-435, > 100 µM (inactive); in the test on Malme-3M, 31.5 µM (inactive). The GI50 with NCI-H460 is 35.3 µM (inactive); with OVCAR-3, 43 µM (inactive); with OVCAR-8, 21.7 µM (inactive); in the test with SNB-19 it was 21.5 µM (inactive); in the test with SR it was 47.2 µM (inactive); in the test on T47D, 36.1 µM (inactive). In addition, the GI50 is 36.2 µM (inactive) in the test with TK-10 and 27.9 µM (inactive) with UACC-62.
Turning to `CN(C)CCN1C(=O)c2cccc3cc([N+](=O)[O-])cc(c23)C1=O` [MITONAFIDE], the GI50 is 0.0762 µM (active) with ACHN; 0.153 µM (active) with CAKI-1; 0.223 µM (active) in the test on DMS-114; 0.286 µM (active) in the test with DU-145; 0.29 µM in the test on HCT-15; 0.301 µM (active) with HT-29. Further, the GI50 in the test with Hs-578T was 1.04 µM (active); in the test on KM12, 0.321 µM (active); in the test on M14 it was 0.479 µM (active); in the test with MCF7, 0.165 µM (active); in the test on MDA-MB-435, 1.75 µM (inactive); in the test with Malme-3M it was 0.404 µM (active). The GI50 in the test with NCI-H460 is 0.0803 µM (active); with OVCAR-3, 1.37 µM (inactive); with OVCAR-8 it was 0.252 µM (active); in the test with SNB-19 it was 0.25 µM (active); with SR it was 0.129 µM (active); with T47D, 0.601 µM (active). Besides, the GI50 with TK-10 is 2.13 µM (inactive); with UACC-62 it was 0.247 µM (active).
